# Target: T1, Human autotaxin enzyme (Homo sapiens, UniProt Q13822)
# T1 construct: purchased R&D System
# Assay: Evaluation of autotaxin inhibitor, 18:0 Lyso PC / choline assay (Test Example 2)
# Format: biochemical
# Settings: human autotaxin enzyme, 18:0 Lyso PC substrate, choline assay, room temperature 2 hours; read-out: Inhibitor activity (IC50)
# How it was run: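 Human autotaxin in 100 mM Tris-HCl pH 7.5, 150 mM NaCl, 5 mM MgCl2, 0.05% Triton X-100 reacted with 18:0 Lyso PC (200 μM stock) and test compound 2 h at room temperature. Released choline quantified via choline oxidase/peroxidase resorufin fluorescence (ex 531/em 598 nm, 20 min); inhibition vs no-compound and no-enzyme controls, concentration-response curve.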
row,Compound,IC50
1,O=C(NCC1(CO)COC1)c1cccc(Cn2c(CCCC(F)(F)F)nc(-c3ccc(Cl)cc3)cc2=O)c1 [Compound I-0194],100 to 1000 nM
2,O=C(c1cccc(Cn2c(CCCC(F)(F)F)nc(-c3ccc(Cl)cc3)cc2=O)c1)N(CCO)CCO [Compound I-0197],100 to 1000 nM
3,O=C(c1cccc(Cn2c(CCCC(F)(F)F)nc(-c3ccc(Cl)cc3)cc2=O)c1)N(CCO)Cc1ccccc1 [Compound I-0198],100 to 1000 nM
4,CCCNc1nc(-c2ccc(Cl)cc2NC(C)=O)cc(=O)n1Cc1ccccc1 [Compound I-0202],100 to 1000 nM
5,CCCOCc1nc(-c2ccc(Cl)cc2)cc(=O)n1CC(=O)NC1(C#N)CC1 [Compound I-0203],100 to 1000 nM
6,CCCOCc1nc(-c2ccc(Cl)cc2)cc(=O)n1CC(=O)NC1(CO)CC1 [Compound I-0204],100 to 1000 nM
7,N#CC1(NC(=O)Cn2c(CCC(F)(F)F)nc(-c3ccc(Cl)cc3)cc2=O)CC1 [Compound I-0207],≥ 1000 nM
8,CCCCCc1nc(OC2CCC(C#N)CC2)cc(=O)n1CC(=O)NC1(C#N)CC1 (stereo not drawn) [Compound I-0208],≥ 1000 nM
9,O=C(Cn1c(COCC2CC2)nc(-c2ccc(Cl)cc2)cc1=O)NCC1(CO)CC1 [Compound I-0212],100 to 1000 nM
10,CCCOCc1nc(-c2ccc(Cl)cc2)cc(=O)n1CC(=O)NCC(C)(C)O [Compound I-0213],100 to 1000 nM
11,CC(C)(O)CNC(=O)Cn1c(COCC2CC2)nc(-c2ccc(Cl)cc2)cc1=O [Compound I-0214],100 to 1000 nM
12,CC(C)(C)OC(=O)Cn1c(CCC(F)(F)F)nc(-c2ccc(Cl)cc2)cc1=O [Compound I-0216],100 to 1000 nM
13,N#CC1(NC(=O)Cn2c(CCCC(F)(F)F)nc(N3CCC(C(F)(F)F)CC3)cc2=O)CC1 [Compound I-0217],10 to 100 nM
14,N#CC1(NC(=O)Cn2c(CCCC(F)(F)F)nc(-c3ccc(Cl)cc3)c(F)c2=O)CC1 [Compound I-0218],100 to 1000 nM
15,N#CC1(NC(=O)Cn2c(CCCC(F)(F)F)nc(N3CCC(Cc4ccccc4)C3)cc2=O)CC1 (stereo not drawn) [Compound I-0219],100 to 1000 nM
16,N#CCc1cc(OC(F)(F)F)ccc1-c1cc(=O)n(CC(=O)NC2(C#N)CC2)c(CCCC(F)(F)F)n1 [Compound I-0220],10 to 100 nM
17,CCOCCc1nc(-c2ccc(Cl)cc2)cc(=O)n1CC(=O)NC1(C#N)CC1 [Compound I-0221],10 to 100 nM
18,CCOCCc1nc(-c2ccc(Cl)cc2)cc(=O)n1CC(=O)NCC(C)(C)O [Compound I-0222],100 to 1000 nM
19,CCOCCc1nc(-c2ccc(Cl)cc2)cc(=O)n1CC(=O)NCC1(CO)CC1 [Compound I-0223],100 to 1000 nM
20,CNc1cc(Cl)ccc1-c1cc(=O)n(CC(=O)NC2(C#N)CC2)c(CCCC(F)(F)F)n1 [Compound I-0224],100 to 1000 nM

# Further lines, results first:
row,IC50,Compound
1,< 10 nM,O=C(c1cccc(Cn2c(CCCC(F)(F)F)nc(-c3ccc(Cl)cc3)cc2=O)c1)N1CCC2(COC2)C1 [Compound I-0195]
2,10 to 100 nM,O=C1CCC(CNC(=O)c2cccc(Cn3c(CCCC(F)(F)F)nc(-c4ccc(Cl)cc4)cc3=O)c2)CN1 (stereo not drawn) [Compound I-0196]
3,10 to 100 nM,C[C@@H]1COC[C@H](C)N1C(=O)c1cccc(Cn2c(CCCC(F)(F)F)nc(-c3ccc(Cl)cc3)cc2=O)c1 [Compound I-0199]
4,10 to 100 nM,CCCCCc1nc(-c2ccc(Cl)cc2NC(C)=O)cc(=O)n1CC(=O)NC1(C#N)CC1 [Compound I-0205]
5,< 10 nM,CC(C)(C)OC(=O)Cn1c(CCCC(F)(F)F)nc(-c2ccc(Cl)cc2)cc1=O [Compound I-0206]
6,10 to 100 nM,N#CC1(NC(=O)Cn2c(COCC3CC3)nc(-c3ccc(Cl)cc3)cc2=O)CC1 [Compound I-0209]
7,10 to 100 nM,N#CC1(NC(=O)Cn2c(COCC(F)(F)F)nc(-c3ccc(Cl)cc3)cc2=O)CC1 [Compound I-0210]
8,10 to 100 nM,O=C(Cn1c(COCC(F)(F)F)nc(-c2ccc(Cl)cc2)cc1=O)NCC1(CO)CC1 [Compound I-0211]
9,10 to 100 nM,CC(C)(O)CNC(=O)Cn1c(COCC(F)(F)F)nc(-c2ccc(Cl)cc2)cc1=O [Compound I-0215]
10,< 10 nM,N#CC1(NC(=O)Cn2c(CCCC(F)(F)F)nc(-c3ccc(C(F)(F)F)cc3)cc2=O)CC1 [Compound I-0225]
